Assay results published in ChEMBL document CHEMBL1146379, “Solid phase synthesis and SAR of small molecule agonists for the GPR40 receptor” (Bioorg Med Chem Lett, 2007).
In brackets after ≈: the same amount, converted by molar mass.

Experiments:
[1] = molecular target: T1, Peroxisome proliferator-activated receptor alpha (Homo sapiens, UniProt Q07869); assay: Activity at PPARalpha receptor
T1 sequence (Q07869 whole entry): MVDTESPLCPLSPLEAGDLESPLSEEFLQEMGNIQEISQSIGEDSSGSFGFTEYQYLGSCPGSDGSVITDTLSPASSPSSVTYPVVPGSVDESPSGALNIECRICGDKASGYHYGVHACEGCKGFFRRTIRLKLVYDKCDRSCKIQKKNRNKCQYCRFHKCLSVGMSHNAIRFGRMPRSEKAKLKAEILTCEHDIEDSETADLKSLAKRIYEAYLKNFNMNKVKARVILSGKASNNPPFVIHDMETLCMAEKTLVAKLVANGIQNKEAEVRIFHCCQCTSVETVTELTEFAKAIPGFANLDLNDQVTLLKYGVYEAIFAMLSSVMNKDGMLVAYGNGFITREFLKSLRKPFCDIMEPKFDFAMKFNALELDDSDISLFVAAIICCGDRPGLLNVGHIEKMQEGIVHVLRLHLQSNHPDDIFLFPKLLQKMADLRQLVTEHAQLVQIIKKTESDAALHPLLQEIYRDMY

[2] = Half life in po dosed rat; type: ADME, organism-based; conditions: in vivo
[3] = molecular target: T2, Peroxisome proliferator-activated receptor gamma (Homo sapiens, UniProt P37231); assay: Activity at PPARgamma receptor
T2 sequence (P37231 whole entry): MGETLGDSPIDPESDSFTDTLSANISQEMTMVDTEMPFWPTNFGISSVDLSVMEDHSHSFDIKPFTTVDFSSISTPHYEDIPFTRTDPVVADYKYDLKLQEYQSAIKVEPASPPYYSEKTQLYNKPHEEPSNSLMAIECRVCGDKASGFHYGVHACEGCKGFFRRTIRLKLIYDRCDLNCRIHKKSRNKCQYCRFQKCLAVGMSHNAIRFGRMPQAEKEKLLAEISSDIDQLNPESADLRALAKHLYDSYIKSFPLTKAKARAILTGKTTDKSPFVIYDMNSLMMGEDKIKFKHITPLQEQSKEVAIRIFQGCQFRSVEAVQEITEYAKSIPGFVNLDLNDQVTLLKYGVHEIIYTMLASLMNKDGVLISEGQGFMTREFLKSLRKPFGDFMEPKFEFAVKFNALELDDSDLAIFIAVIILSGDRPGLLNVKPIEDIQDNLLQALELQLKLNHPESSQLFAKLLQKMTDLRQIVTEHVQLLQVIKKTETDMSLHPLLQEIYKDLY

[4] = Permeability in MDCK cells expressing low Pgp; type: ADME, cell-based, Canis lupus familiaris; conditions: dog, MDCK type I; read-out: permeability
Liver microsomes = assay: Intrinsic clearance in human liver microsomes; type: ADME, Microsome
[5] = Half life in iv dosed rat; type: ADME, organism-based; conditions: in vivo
[6] = molecular target: T3, Prostaglandin E2 receptor EP1 subtype (Homo sapiens, UniProt P34995); assay: Activity at EP1 receptor
T3 sequence (P34995 whole entry): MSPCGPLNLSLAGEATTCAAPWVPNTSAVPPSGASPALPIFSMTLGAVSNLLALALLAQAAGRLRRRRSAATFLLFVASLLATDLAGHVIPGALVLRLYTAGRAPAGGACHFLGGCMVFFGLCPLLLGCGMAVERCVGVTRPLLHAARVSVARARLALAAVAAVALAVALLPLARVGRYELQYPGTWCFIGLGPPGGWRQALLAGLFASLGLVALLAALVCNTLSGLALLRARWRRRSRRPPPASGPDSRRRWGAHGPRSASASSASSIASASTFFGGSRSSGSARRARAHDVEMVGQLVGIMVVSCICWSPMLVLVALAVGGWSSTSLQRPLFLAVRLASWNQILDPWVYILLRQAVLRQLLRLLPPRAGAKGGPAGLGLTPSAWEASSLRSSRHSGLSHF

[7] = molecular target: T4, Free fatty acid receptor 1 (Homo sapiens, UniProt O14842); assay: Agonist activity at GPR40 receptor expressed in CHO cells by reporter gene assay; type: functional, cell-based
Cytochrome P450 2D6 = Cytochrome P450 2D6 (Homo sapiens, UniProt P10635); assay: Inhibition of CYP2D6; type: ADME
[8] = Bioavailability in rat; type: ADME, organism-based; conditions: in vivo
Homo sapiens = organism: Homo sapiens; assay: Selectivity for GPR40 over GPR43
[9] = molecular target: Sphingosine 1-phosphate receptor 1 (Homo sapiens, UniProt P21453); assay: Activity at S1P1 receptor
Cytochrome P450 3A4 = Cytochrome P450 3A4 (Homo sapiens, UniProt P08684); assay: Inhibition of CYP3A4; type: ADME
[10] = molecular target: T5, Free fatty acid receptor 3 (Homo sapiens, UniProt O14843); assay: Activity at GPR41 receptor
T5 sequence (O14843 whole entry): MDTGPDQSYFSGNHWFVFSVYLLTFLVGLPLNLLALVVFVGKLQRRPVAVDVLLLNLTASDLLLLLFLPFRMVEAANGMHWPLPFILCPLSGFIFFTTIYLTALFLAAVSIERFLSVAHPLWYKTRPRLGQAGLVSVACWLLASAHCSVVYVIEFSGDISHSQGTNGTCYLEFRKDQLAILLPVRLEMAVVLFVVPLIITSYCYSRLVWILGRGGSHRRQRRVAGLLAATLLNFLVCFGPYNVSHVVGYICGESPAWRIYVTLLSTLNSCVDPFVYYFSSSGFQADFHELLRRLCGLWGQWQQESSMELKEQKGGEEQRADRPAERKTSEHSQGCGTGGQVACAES

Cytochrome P450 2C9 = Cytochrome P450 2C9 (Homo sapiens, UniProt P11712); assay: Inhibition of CYP2C9; type: ADME
Cytochrome P450 2C19 = Cytochrome P450 2C19 (Homo sapiens, UniProt P33261); assay: Inhibition of CYP2C19; type: ADME
[11] = Volume of distribution at steady state in rat; type: ADME, organism-based; conditions: in vivo, read-out: Vdss
[12] = Protein binding in rat plasma by ultrafiltration assay; type: ADME, cell-free; conditions: read-out: PB
[13] = molecular target: T4, Free fatty acid receptor 1; assay: Agonist activity at GPR40 receptor; type: functional
[14] = molecular target: Prostaglandin E2 receptor EP4 subtype (Homo sapiens, UniProt P35408); assay: Activity at EP4 receptor
[15] = Solubility at pH 7.4; type: physicochemical; conditions: buffer
Cytochrome P450 1A2 = molecular target: T6, Cytochrome P450 1A2 (Homo sapiens, UniProt P05177); assay: Inhibition of CYP1A2; type: ADME
T6 sequence (P05177 whole entry): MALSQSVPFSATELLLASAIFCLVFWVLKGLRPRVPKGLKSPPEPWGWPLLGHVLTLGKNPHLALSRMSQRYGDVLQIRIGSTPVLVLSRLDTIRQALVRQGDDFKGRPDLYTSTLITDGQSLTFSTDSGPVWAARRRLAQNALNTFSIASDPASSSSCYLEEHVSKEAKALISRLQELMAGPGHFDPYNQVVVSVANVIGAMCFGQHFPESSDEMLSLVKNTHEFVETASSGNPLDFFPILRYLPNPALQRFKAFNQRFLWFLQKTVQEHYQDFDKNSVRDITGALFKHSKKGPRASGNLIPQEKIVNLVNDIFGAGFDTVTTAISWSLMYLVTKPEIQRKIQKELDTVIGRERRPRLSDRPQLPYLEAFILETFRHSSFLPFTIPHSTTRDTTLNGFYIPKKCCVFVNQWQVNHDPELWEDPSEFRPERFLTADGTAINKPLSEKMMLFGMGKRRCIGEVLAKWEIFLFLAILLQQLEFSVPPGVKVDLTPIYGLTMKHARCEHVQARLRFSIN

T4 sequence (O14842 whole entry): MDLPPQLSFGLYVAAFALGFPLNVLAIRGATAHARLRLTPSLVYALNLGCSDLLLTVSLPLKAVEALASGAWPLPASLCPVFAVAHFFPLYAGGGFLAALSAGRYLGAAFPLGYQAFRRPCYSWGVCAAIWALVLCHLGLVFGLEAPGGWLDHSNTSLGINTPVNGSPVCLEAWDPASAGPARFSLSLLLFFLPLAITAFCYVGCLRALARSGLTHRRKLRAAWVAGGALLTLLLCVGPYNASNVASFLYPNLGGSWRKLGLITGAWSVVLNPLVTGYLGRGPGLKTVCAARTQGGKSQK
Sequence of Prostaglandin E2 receptor EP4 subtype (P35408 whole entry): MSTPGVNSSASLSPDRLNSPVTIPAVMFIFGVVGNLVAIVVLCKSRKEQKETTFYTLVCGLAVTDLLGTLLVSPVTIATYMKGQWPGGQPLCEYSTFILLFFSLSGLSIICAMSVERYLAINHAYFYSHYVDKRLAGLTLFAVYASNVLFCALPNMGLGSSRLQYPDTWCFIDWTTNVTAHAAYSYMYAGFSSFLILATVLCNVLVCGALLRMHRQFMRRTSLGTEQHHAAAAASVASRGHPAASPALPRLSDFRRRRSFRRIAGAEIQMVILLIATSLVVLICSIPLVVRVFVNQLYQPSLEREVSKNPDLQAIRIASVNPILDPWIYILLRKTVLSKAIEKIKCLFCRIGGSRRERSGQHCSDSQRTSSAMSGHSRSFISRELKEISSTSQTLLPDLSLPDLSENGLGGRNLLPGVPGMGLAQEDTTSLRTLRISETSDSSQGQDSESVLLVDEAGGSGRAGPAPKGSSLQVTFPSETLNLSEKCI
Sequence of Sphingosine 1-phosphate receptor 1 (P21453 whole entry): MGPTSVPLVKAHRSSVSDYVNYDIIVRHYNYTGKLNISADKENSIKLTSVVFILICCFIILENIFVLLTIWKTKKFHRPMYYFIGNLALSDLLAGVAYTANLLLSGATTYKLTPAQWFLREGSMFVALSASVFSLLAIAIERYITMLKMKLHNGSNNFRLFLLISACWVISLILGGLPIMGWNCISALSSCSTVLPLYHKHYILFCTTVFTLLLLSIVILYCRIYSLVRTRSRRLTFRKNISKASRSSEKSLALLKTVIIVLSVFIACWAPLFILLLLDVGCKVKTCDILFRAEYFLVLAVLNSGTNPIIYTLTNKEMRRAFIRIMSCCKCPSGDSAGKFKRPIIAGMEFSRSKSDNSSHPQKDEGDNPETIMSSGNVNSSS
Sequence of Cytochrome P450 3A4 (P08684 whole entry): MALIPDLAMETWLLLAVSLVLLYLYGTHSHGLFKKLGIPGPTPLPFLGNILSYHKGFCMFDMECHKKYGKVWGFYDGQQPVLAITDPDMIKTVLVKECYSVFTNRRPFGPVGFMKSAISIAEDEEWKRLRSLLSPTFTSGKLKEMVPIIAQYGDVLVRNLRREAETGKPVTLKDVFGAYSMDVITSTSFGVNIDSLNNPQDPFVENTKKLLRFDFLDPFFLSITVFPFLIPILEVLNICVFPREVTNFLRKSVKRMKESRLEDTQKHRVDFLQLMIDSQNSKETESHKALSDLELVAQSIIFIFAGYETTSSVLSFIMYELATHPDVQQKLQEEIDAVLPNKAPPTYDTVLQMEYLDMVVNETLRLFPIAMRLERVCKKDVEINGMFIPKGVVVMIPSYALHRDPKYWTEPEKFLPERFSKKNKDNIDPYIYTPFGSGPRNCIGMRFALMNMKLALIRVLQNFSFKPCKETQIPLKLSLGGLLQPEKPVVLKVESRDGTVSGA
Sequence of Cytochrome P450 2D6 (P10635 whole entry): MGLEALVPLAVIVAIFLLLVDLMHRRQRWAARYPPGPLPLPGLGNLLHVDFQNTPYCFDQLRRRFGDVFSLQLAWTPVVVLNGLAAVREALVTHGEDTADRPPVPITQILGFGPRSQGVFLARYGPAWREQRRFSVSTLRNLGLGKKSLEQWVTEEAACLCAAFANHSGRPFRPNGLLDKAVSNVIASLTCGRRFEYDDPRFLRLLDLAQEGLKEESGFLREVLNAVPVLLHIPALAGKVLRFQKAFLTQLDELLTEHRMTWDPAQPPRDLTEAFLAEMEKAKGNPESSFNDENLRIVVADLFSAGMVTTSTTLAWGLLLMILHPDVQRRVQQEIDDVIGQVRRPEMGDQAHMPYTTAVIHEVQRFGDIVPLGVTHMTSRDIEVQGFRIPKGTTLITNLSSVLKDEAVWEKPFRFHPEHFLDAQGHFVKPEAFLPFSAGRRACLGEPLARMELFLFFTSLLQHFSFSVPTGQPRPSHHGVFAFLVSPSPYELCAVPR
Sequence of Cytochrome P450 2C9 (P11712 whole entry): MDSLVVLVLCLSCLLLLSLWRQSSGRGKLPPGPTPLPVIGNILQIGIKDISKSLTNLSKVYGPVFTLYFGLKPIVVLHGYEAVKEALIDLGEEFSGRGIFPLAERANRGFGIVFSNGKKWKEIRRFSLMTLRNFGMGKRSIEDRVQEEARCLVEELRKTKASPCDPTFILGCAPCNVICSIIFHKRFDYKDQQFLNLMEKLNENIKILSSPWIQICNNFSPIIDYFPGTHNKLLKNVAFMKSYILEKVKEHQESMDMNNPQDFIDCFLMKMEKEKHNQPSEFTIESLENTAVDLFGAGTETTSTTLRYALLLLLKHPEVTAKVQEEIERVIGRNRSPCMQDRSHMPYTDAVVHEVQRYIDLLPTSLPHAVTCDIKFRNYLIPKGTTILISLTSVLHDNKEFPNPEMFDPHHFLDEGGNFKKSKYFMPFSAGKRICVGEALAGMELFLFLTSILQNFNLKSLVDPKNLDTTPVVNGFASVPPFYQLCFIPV
Sequence of Cytochrome P450 2C19 (P33261 whole entry): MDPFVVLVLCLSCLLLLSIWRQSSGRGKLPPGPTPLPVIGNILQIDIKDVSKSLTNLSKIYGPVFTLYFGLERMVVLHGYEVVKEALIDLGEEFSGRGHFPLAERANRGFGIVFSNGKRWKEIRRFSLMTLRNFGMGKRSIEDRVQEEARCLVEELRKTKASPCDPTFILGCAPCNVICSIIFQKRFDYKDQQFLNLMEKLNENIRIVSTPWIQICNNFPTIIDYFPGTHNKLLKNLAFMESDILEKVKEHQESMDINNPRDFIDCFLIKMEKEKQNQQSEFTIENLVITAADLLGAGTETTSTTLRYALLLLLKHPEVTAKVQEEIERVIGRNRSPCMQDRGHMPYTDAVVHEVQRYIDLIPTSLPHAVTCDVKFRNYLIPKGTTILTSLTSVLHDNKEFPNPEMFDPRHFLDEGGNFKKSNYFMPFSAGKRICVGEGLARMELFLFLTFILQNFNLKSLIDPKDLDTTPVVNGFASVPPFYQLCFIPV

O=C(O)CCc1ccc(NCc2cccc(Oc3ccccc3)c2)cc1 [GW9508]
Ki [1]: > 3.16 µM | half-life [2]: 5.9 h | Ki [3]: > 3.16 µM | Papp [4]: 599 nm/s | CL (Liver microsomes): 0.74 mL/min/g | half-life [5]: 5.3 h | Ki [6]: > 1.58 µM | %max [7]: 69% | IC50 (Cytochrome P450 2D6): > 33 µM | bioavailability [8]: 65% | Fold change (Homo sapiens): > 500 | EC50 [9]: > 31.6 µM | IC50 (Cytochrome P450 3A4): > 33 µM | EC50 [10]: > 50.1 µM | IC50 (Cytochrome P450 2C9): > 33 µM | IC50 (Cytochrome P450 2C19): > 33 µM | Vd [11]: 4.7 L/kg | fraction unbound [12]: < 0.004 | EC50 [13]: 0.0794 µM | Ki [14]: > 3.16 µM | solubility [15]: 0.29 mg/mL (≈ 835 µM) | IC50 (Cytochrome P450 1A2): > 33 µM
